Assay: Physicochemical parameters of Luc-mRNA-LNP (particle size, PDI, zeta potential, encapsulation efficiency)
Conditions: lipid formulation of Table 1
Experimental: The lipid compound of the present disclosure, neutral lipid (phospholipid), and PEG lipid were dissolved in an ethanol solution according to a specific molar ratio (detailed formulation shown in Table 1). The mRNA was dissolved in a citric acid buffer (pH 4.0) to a final concentration of 135 ng/µL. The LNP mixture and the mRNA dilution were mixed at a volume ratio of 1:3, and mRNA-LNP complexes were prepared using a microfluidic nano-preparation system with a flow rate ratio of 1:3 between the LNP mixture and the mRNA dilution, that is, the LNP volume:the mRNA volume was 1:3. After dilution with a 10× phosphate buffer solution (pH 7.4), ultrafiltration concentration was performed, followed by about 500-fold dilution with solution replacement. An experimental sample was obtained after sterile filtration. Samples were taken and analyzed for average particle size, PDI, and Zeta potential. Table 1: Three-component LNP lipid formulation based on cholesterol cationic lipid compound
Example 13: Preparation, Characterization, and In Vitro Cell Transfection Activity Evaluation of Luc-mRNA-LNP Using luciferase gene Luc-mRNA and referring to the preparation method provided in Example 12 and the lipid formulation provided in Table 1, Luc-mRNA-LNP was constructed, whose encapsulation efficiency, average particle size, PDI, and zeta potential data are shown in Table 2. […]

Encapsulation efficiency (%): below 15%
SMILES: CCCCCCCCCCCOC(=O)CCCCCN(CCO)CCCCCCCC(=O)OC(CCCCCCCC)CCCCCCCC [SM-102]
